Data: US9018208B2, “Heterocycles as potassium channel modulators” (Icagen Inc., priority 2007, dated 2015)

What follows are compounds tested on SH-SY5Y M-currents (KCNQ2, KCNQ3 and KCNQ5) (assay: SH-SY5Y native cell line FLIPR assay (voltage-sensitive dye DiBAC)). Conditions: FLIPR assay, SH-SY5Y native cell line; Table 2; read-out: SH-SY5Y EC50.
Type: cell-based, mouse neuroblastoma, rat glioma hybrid cell line
Summary of the method: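 Response is peak DiBAC fluorescence change, normalised to the maximum from a positive control agent, sampled every 30 s over 25 min. Before compound addition, SH-SY5Y cells differentiated with PGE1 plus isomethylbutylxanthine were dye-loaded for 1 h in EBSS with […] DiBAC.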

EC50, < 500 nM:
CC(C)(C)CC(=O)Nc1nc2ccc(C#N)cn2c1-c1ccc(C(F)(F)F)cc1 [Compound 259, N-(6-cyano-3-(4-(trifluoromethyl)phenyl)imidazo[1,2-a]pyridin-2-yl)-3,3-dimethylbutanamide]
N#Cc1ccc2nc(NC(=O)Cc3ccc(F)cc3)c(-c3ccc(C(F)(F)F)cc3)n2c1 [Compound 260, N-(6-cyano-3-(4-(trifluoromethyl)phenyl)imidazo[1,2-a]pyridin-2-yl)-2-(4-fluorophenyl)acetamide]
CC(C)(C)CC(=O)Nc1nc2c(F)cc(F)cn2c1-c1ccc(OC(F)(F)F)cc1 [Compound 262, N-(6,8-difluoro-3-(4-(trifluoromethoxy)phenyl)imidazo[1,2-a]pyridin-2-yl)-3,3-dimethylbutanamide]
O=C(CC1CCCC1)Nc1nc2ccc(F)cn2c1-c1cccc(OC(F)(F)F)c1 [Compound 264, 2-cyclopentyl-N-(6-fluoro-3-(3-(trifluoromethoxy)phenyl)imidazo[1,2-a]pyridin-2-yl)acetamide]
O=C(CC1CCC1)Nc1nc2ccc(F)cn2c1-c1cccc(OC(F)(F)F)c1 [Compound 266, 2-cyclobutyl-N-(6-fluoro-3-(3-(trifluoromethoxy)phenyl)imidazo[1,2-a]pyridin-2-yl)acetamide]
O=C(CC1CCCC1)Nc1nc2ccc(F)cn2c1-c1cccc(C(F)(F)F)c1 [Compound 268, 2-cyclopentyl-N-(6-fluoro-3-(3-(trifluoromethyl)phenyl)imidazo[1,2-a]pyridin-2-yl)acetamide]
O=C(CC1CCC1)Nc1nc2ccc(F)cn2c1-c1cccc(C(F)(F)F)c1 [Compound 270, 2-cyclobutyl-N-(6-fluoro-3-(3-(trifluoromethyl)phenyl)imidazo[1,2-a]pyridin-2-yl)acetamide]
O=C(CCC1CC1)Nc1nc2ccc(F)cn2c1-c1cccc(OC(F)(F)F)c1 [Compound 274, 3-cyclopropyl-N-(6-fluoro-3-(3-(trifluoromethoxy)phenyl)imidazo[1,2-a]pyridin-2-yl)propanamide]
CC(CC(=O)Nc1nc2ccc(F)cn2c1-c1cccc(OC(F)(F)F)c1)C(F)(F)F (stereo not shown) [Compound 276, 4,4,4-trifluoro-N-(6-fluoro-3-(3-(trifluoromethoxy)phenyl)imidazo[1,2-a]pyridin-2-yl)-3-methylbutanamide]
CC(C)(C)OCCC(=O)Nc1nc2ccc(F)cn2c1-c1cccc(OC(F)(F)F)c1 [Compound 277, 3-tert-butoxy-N-(6-fluoro-3-(3-(trifluoromethoxy)phenyl)imidazo[1,2-a]pyridin-2-yl)propanamide]
CC(C)C(C)C(=O)Nc1nc2ccc(F)cn2c1-c1cccc(OC(F)(F)F)c1 (stereo not shown) [Compound 278, N-(6-fluoro-3-(3-(trifluoromethoxy)phenyl)imidazo[1,2-a]pyridin-2-yl)-2,3-dimethylbutanamide]
CC(C)(C)CCC(=O)Nc1nc2ccc(F)cn2c1-c1cccc(OC(F)(F)F)c1 [Compound 279, N-(6-fluoro-3-(3-(trifluoromethoxy)phenyl)imidazo[1,2-a]pyridin-2-yl)-4,4-dimethylpentanamide]
CC(CC(=O)Nc1nc2ccc(F)cn2c1-c1cccc(C(F)(F)F)c1)C(F)(F)F (stereo not shown) [Compound 282, 4,4,4-trifluoro-N-(6-fluoro-3-(3-(trifluoromethyl)phenyl)imidazo[1,2-a]pyridin-2-yl)-3-methylbutanamide]
CC(C)(C)CCC(=O)Nc1nc2ccc(F)cn2c1-c1cccc(C(F)(F)F)c1 [Compound 283, N-(6-fluoro-3-(3-(trifluoromethyl)phenyl)imidazo[1,2-a]pyridin-2-yl)-4,4-dimethylpentanamide]
CC1(CC(=O)Nc2nc3ccc(F)cn3c2-c2cccc(Cl)c2)CCCC1 [Compound 286, N-(3-(3-chlorophenyl)-6-fluoroimidazo[1,2-a]pyridin-2-yl)-2-(1-methylcyclopentyl)acetamide]
O=C(Nc1nc2ccc(F)cn2c1-c1cccc(C(F)(F)F)c1)C1CCCC1 [Compound 289, N-(6-fluoro-3-(3-(trifluoromethyl)phenyl)imidazo[1,2-a]pyridin-2-yl)cyclopentanecarboxamide]
O=C(Nc1nc2ccc(F)cn2c1-c1ccc(OC(F)(F)F)cc1)C1CCCC1 [Compound 290, N-(6-fluoro-3-(4-(trifluoromethoxy)phenyl)imidazo[1,2-a]pyridin-2-yl)cyclopentanecarboxamide]
O=C(Nc1nc2ccc(F)cn2c1-c1ccc(OC(F)(F)F)cc1)C1CCCCCC1 [Compound 291, N-(6-fluoro-3-(4-(trifluoromethoxy)phenyl)imidazopyridin-2-yl)cycloheptanecarboxamide]
O=C(Cc1ccccc1)Nc1nc2ccc(F)cn2c1-c1ccc(OC(F)(F)F)c(F)c1 [Compound 295, N-(6-fluoro-3-(3-fluoro-4-(trifluoromethoxy)phenyl)imidazo[1,2-a]pyridin-2-yl)-2-phenylacetamide]
O=C(Cc1ccc(F)cc1)Nc1nc2ccc(F)cn2c1-c1ccc(OC(F)(F)F)c(F)c1 [Compound 296, N-(6-fluoro-3-(3-fluoro-4-(trifluoromethoxy)phenyl)imidazo[1,2-a]pyridin-2-yl)-2-(4-fluorophenyl)acetamide]
O=C(Cc1ccc(C(F)(F)F)cc1)Nc1nc2ccc(F)cn2c1-c1ccc(OC(F)(F)F)c(F)c1 [Compound 297, N-(6-fluoro-3-(3-fluoro-4-(trifluoromethoxy)phenyl)imidazo[1,2-a]pyridin-2-yl)-2-(4-(trifluoromethyl)phenyl)acetamide]
O=C(Cc1cccc(Cl)c1)Nc1nc2ccc(F)cn2c1-c1ccc(OC(F)(F)F)c(F)c1 [Compound 298, 2-(3-chlorophenyl)-N-(6-fluoro-3-(3-fluoro-4-(trifluoromethoxy)phenyl)imidazo[1,2-a]pyridin-2-yl)acetamide]

EC50, 500 to 3000 nM:
O=C(CC(F)(F)F)Nc1nc2ccc(F)cn2c1-c1cccc(OC(F)(F)F)c1 [Compound 263, 3,3,3-trifluoro-N-(6-fluoro-3-(3-(trifluoromethoxy)phenyl)imidazo[1,2-a]pyridin-2-yl)propanamide]
O=C(CC1CC1)Nc1nc2ccc(F)cn2c1-c1cccc(OC(F)(F)F)c1 [Compound 265, 2-cyclopropyl-N-(6-fluoro-3-(3-(trifluoromethoxy)phenyl)imidazo[1,2-a]pyridin-2-yl)acetamide]
O=C(CC(F)(F)F)Nc1nc2ccc(F)cn2c1-c1cccc(C(F)(F)F)c1 [Compound 267, 3,3,3-trifluoro-N-(6-fluoro-3-(3-(trifluoromethyl)phenyl)imidazo[1,2-a]pyridin-2-yl)propanamide]
O=C(CC1CC1)Nc1nc2ccc(F)cn2c1-c1cccc(C(F)(F)F)c1 [Compound 269, 2-cyclopropyl-N-(6-fluoro-3-(3-(trifluoromethyl)phenyl)imidazo[1,2-a]pyridin-2-yl)acetamide]
O=C(Cc1ccc(F)cc1)Nc1nc2ccc(Cl)nn2c1-c1ccc(C(F)(F)F)cc1 [Compound 272, N-(6-chloro-3-(4-(trifluoromethyl)phenyl)imidazo[1,2-b]pyridazin-2-yl)-2-(4-fluorophenyl)acetamide]
Cc1ccc(-c2c(NC(=O)CC(C)(C)C)nc3ccc(F)cn23)cc1 [Compound 273, N-(6-fluoro-3-p-tolylimidazo[1,2-a]pyridin-2-yl)-3,3-dimethylbutanamide]
O=C(CCC(F)(F)F)Nc1nc2ccc(F)cn2c1-c1cccc(OC(F)(F)F)c1 [Compound 275, 4,4,4-trifluoro-N-(6-fluoro-3-(3-(trifluoromethoxy)phenyl)imidazo[1,2-a]pyridin-2-yl)butanamide]
O=C(CCC1CC1)Nc1nc2ccc(F)cn2c1-c1cccc(C(F)(F)F)c1 [Compound 280, 3-cyclopropyl-N-(6-fluoro-3-(3-(trifluoromethyl)phenyl)imidazo[1,2-a]pyridin-2-yl)propanamide]
O=C(CCC(F)(F)F)Nc1nc2ccc(F)cn2c1-c1cccc(C(F)(F)F)c1 [Compound 281, 4,4,4-trifluoro-N-(6-fluoro-3-(3-(trifluoromethyl)phenyl)imidazo[1,2-a]pyridin-2-yl)butanamide]
O=C(CC(F)(F)F)Nc1nc2ccc(F)cn2c1-c1cccc(Cl)c1 [Compound 284, N-(3-(3-chlorophenyl)-6-fluoroimidazo[1,2-a]pyridin-2-yl)-3,3,3-trifluoropropanamide]
O=C(CCC(F)(F)F)Nc1nc2ccc(F)cn2c1-c1cccc(Cl)c1 [Compound 285, N-(3-(3-chlorophenyl)-6-fluoroimidazo[1,2-a]pyridin-2-yl)-4,4,4-trifluorobutanamide]
CC(C)(C)OCCC(=O)Nc1nc2ccc(F)cn2c1-c1cccc(C(F)(F)F)c1 [Compound 287, 3-tert-butoxy-N-(6-fluoro-3-(3-(trifluoromethyl)phenyl)imidazo[1,2-a]pyridin-2-yl)propanamide]
CC(C)C(C)C(=O)Nc1nc2ccc(F)cn2c1-c1cccc(C(F)(F)F)c1 (stereo not shown) [Compound 288, N-(6-fluoro-3-(3-(trifluoromethyl)phenyl)imidazo[1,2-a]pyridin-2-yl)-2,3-dimethylbutanamide]
O=C(Nc1nc2ccc(F)cn2c1-c1ccc(OC(F)(F)F)cc1)C1Cc2ccccc2C1 [Compound 292, N-(6-fluoro-3-(4-(trifluoromethoxy)phenyl)imidazo[1,2-a]pyridin-2-yl)-2,3-dihydro-1H-indene-2-carboxamide]
O=C(Cc1ccc(C(F)(F)F)cc1)Nc1nc2ccc(F)cn2c1-c1cccc(Cl)c1 [Compound 299, N-(3-(3-chlorophenyl)-6-fluoroimidazo[1,2-a]pyridin-2-yl)-2-(4-(trifluoromethyl)phenyl)acetamide]
